In patent US20260356835A1, “BICYCLIC HETEROARYL COMPOUNDS” (QuantX Biosciences US, Inc., priority 2023, published 2026):

Experiments:
Kuramochi cells = test: Cellular Viability Assay (5 day Kuramochi cell viability, CellTiter-Glo); assay type: cell-based; details: 5 days, 37 °C, growth inhibition relative to Day 0 (T0) and DMSO
Method: Kuramochi cells were seeded at a density of 1000 cells per well in a 384-well, white, sterile, clear bottom plate, using a Multidrop liquid dispenser and incubated for 24 hours at 37 °C in a 5% CO2 humidified environment. 24 hours later, compounds were added starting at a top dose of 10 μM for a 9-point dose response curve at a 1:3 dilution using an iDOT HT liquid handler and incubated for 5 days at 37 °C in a 5% CO2 humidified environment. After 5 days and at Day 0, plates were incubated at room temperature for 30 minutes followed by the addition of 30 μl of CellTiter-Glo Reagent. Plates were then mixed for 10 minutes on an orbital shaker followed by incubation at room temperature for 20 minutes. Luminescence was then read using the Envision plate reader. Percent Growth Inhibition was then calculated using the following equation: Percent Growth Inhibition normalized=100−(compound signal−T0)/(max signal−T0)*100%, where Max Signal refers to the DMSO only treated cells and T0 refers to the Day0 viability measurement. Growth Inhibition 50 was then calculated using the following equation: Y=Bottom+(Top−Bottom)/(1+10^((Log IC50−X)*hillslope)).
For cell activity, bracket is denoted as: A<1 uM; 1 uM<B<5 uM; C>5 uM.

[1] = target: T1, N-his8-TEV-hPARG (389-976) (Homo sapiens, UniProt Q86W56); test: PARG Biochemical Enzymatic Assay (PARG inhibition HTRF assay); details: 62.5 pM PARG, 5 nM Biotin-Parylated PARP1 substrate, 60 minutes preincubation, 10 minutes reaction at 23 °C
T1 construct: N-his8-TEV-hPARG (389-976); His8 (N); TEV protease cleavage site (N); made in house; host or cells: E. coli BL21(DE3)
T1 sequence (Q86W56 389-976): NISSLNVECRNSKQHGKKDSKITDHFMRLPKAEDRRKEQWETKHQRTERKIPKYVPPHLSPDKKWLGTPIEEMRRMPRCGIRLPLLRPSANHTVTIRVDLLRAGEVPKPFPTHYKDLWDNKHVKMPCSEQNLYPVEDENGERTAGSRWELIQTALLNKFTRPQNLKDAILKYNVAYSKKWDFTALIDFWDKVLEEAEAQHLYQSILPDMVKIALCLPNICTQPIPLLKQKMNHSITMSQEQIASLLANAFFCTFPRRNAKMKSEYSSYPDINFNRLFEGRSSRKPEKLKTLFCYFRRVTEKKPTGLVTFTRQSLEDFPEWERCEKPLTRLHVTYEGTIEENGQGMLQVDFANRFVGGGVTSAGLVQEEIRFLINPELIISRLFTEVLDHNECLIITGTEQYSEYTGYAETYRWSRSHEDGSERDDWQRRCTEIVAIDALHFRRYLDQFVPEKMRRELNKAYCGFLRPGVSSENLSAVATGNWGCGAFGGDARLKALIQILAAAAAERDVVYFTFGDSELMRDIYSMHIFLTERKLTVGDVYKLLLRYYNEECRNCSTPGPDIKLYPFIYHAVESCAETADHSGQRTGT
Method: PARG Biochemical Enzymatic Assay
TEV-His8-PolyADP-Ribose Polymerase 1 (379-1014) (PARP1) and N-his8-TEV-hPARG (389-976) were used to transform BL21(DE3) competent cells followed by growth for 1 hour at 37 °C and plating on Kanamycin resistant agar plates. A single colony was then inoculated into 1 ml of Luria Broth and expansion into a 1 liter scale for growth at 37 °C for 3 hours. Expression was induced via 0.2 mM IPTG induction for 20 hours at 16 °C in BL21(DE3) E. coli. Purification was then performed using a Nickel column, size exclusion chromatography and HPLC analysis.
For substrate preparation, […] nicked DNA and 2 μM PARP1 protein were mixed for 10 minutes at 25 °C 10 μM biotin-NAD+ and 100 μM NAD+ were then added and incubated for 60 minutes at 30 °C to yield PARylated PARP1 substrate.
For compound screening, compounds were serially diluted to a 3× final concentration in assay buffer (Tris pH7.5 50 mM, KCl 50 mM, Tween-20 0.01%, BSA 0.1 mg/ml, EDTA 3 mM, EGTA 0.4 mM, DTT 1 mM) containing 1% DMSO. A top concentration of 1.5 μM for a 10-point dose response curve using a 1:3 dilution curve was used. 2.5×PARG (156.25 pM working concentration, 62.5 pM final concentration) was prepared in assay buffer and 4 ul added to a 384 well assay plate containing 2 μl of serially diluted compound. The plate was then centrifuged for 10 seconds and incubated for 60 minutes at 23 °C. 4 μl of 2.5× Biotin-Parylated PARP1 (12.5 nM working concentration, 5 nM final concentration) was then added to the plate and incubated for 10 minutes at 23 °C. 4 μl of […] Detection reagent containing 0.44 μg/ml of Streptavidin-Europium cryptate and 4 μg/ml of anti-6His-XL665 monoclonal antibody was added to the plate and incubated for 60 minutes at 23 °C. The Homogeneous Time Resolved Fluorescent (HTRF) signal was then measured on an Envision plate reader using and excitation wavelength of 337 nm and emission wavelengths of 615 nm and 665 nm. Normalized percent inhibition was then calculated using the following equation: % Inhibition normalized=(compound signal-min signal)/(max signal-min signal)*100%, where Maximum signal was substrate only wells and Minimum signal was enzyme and substrate well. IC50 was calculated by fitting % Inhibition values and log of compound concentrations to nonlinear regression (log(inhibitor) vs. response—Variable slope(four parameters)) with GraphPad 9.4.1
For biochemical activity, bracket is denoted as: A<100 nM; 100 nM<B<500 nM; C>500 nM

Q: How did the IC50 (Kuramochi cells) turn out when `Cn1ccnc1N1CCN(c2cc(S(=O)(=O)NC3(C#N)CC3)cc3c(-c4nnc(C(F)F)s4)cnn23)CC1` [Example 16, N-(1-cyanocyclopropyl)-3-(5-(difluoromethyl)-1,3,4-thiadiazol-2-yl)-7-(4-(1-methyl-1H-imidazol-2-yl)piperazin-1-yl)pyrazolo[1,5-a]pyridine-5-sulfonamide] was run?
A: 1000 to 5000 nM

Q: And the IC50 [1]?
A: < 100 nM

Q: Which results are given for `N#CC1(NS(=O)(=O)c2cc(N3CCN(C(=O)C4CC4)CC3)n3ncc(-c4nnc(C(F)F)s4)c3c2)CC1` [Example 3, N-(1-cyanocyclopropyl)-7-[4-(cyclopropanecarbonyl)piperazin-1-yl]-3-[5-(difluoromethyl)-1,3,4-thiadiazol-2-yl]pyrazolo[1,5-a]pyridine-5-sulfonamide]?
A: IC50 (Kuramochi cells): < 1000 nM; IC50 [1]: < 100 nM

Q: With `Cc1nnc(N2CCN(c3cc(S(=O)(=O)NC4(C#N)CC4)cc4c(-c5nnc(C(F)F)s5)cnn34)CC2)s1` [Example 20, N-(1-cyanocyclopropyl)-3-[5-(difluoromethyl)-1,3,4-thiadiazol-2-yl]-7-[4-(5-methyl-1,3,4-thiadiazol-2-yl)piperazin-1-yl]pyrazolo[1,5-a]pyridine-5-sulfonamide] as the compound, how does the IC50 (Kuramochi cells) read?
A: < 1000 nM

Q: And the IC50 [1]?
A: < 100 nM

Q: What does the source list for `O=S(=O)(NC1(C(F)F)CC1)c1cc(N2CCC3(CC2)COC3)c2cnc(-c3nnc(C(F)F)s3)n2c1` [Example 39, 3-(5-(difluoromethyl)-1,3,4-thiadiazol-2-yl)-N-(1-(difluoromethyl)cyclopropyl)-8-(2-oxa-7-azaspiro[3.5]nonan-7-yl)imidazo[1,5-a]pyridine-6-sulfonamide]?
A: IC50 (Kuramochi cells): < 1000 nM; IC50 [1]: < 100 nM

Q: What does the source list for `CC1(NS(=O)(=O)c2cc(N3CCC4(CC3)COC4)n3ncc(-c4nncs4)c3c2)CC1` [Example 5]?
A: IC50 (Kuramochi cells): < 1000 nM; IC50 [1]: < 100 nM

Q: What does the source list for `O=S(=O)(NC1(C(F)F)CC1)c1cc(N2CCC3(CC2)COC3)c2nnc(-c3nnc(C(F)F)s3)n2c1` [Example 40, 3-(5-(Difluoromethyl)-1,3,4-thiadiazol-2-yl)-N-(1-(difluoromethyl)cyclopropyl)-8-(2-oxa-7-azaspiro[3.5]nonan-7-yl)-[1,2,4]triazolo[4,3-a]pyridine-6-sulfonamide]?
A: IC50 (Kuramochi cells): < 1000 nM; IC50 [1]: < 100 nM

Q: How did the IC50 (Kuramochi cells) turn out when `N#CC1(NS(=O)(=O)c2cc(N3CCN(C(=O)N4CC[C@H](F)C4)CC3)n3ncc(-c4nnc(C(F)F)s4)c3c2)CC1` [Example 22, (S)-N-(1-cyanocyclopropyl)-3-(5-(difluoromethyl)-1,3,4-thiadiazol-2-yl)-7-(4-(3-fluoropyrrolidine-1-carbonyl)piperazin-1-yl)pyrazolo[1,5-a]pyridine-5-sulfonamide] was run?
A: < 1000 nM

Q: And the IC50 [1]?
A: < 100 nM

Q: With `CC1(NS(=O)(=O)c2cc(N3CCC4(CC3)COC4)n3ncc(-c4nnc(C(F)(F)F)s4)c3c2)CC1` [Example 14, N-(1-methylcyclopropyl)-7-(2-oxa-7-azaspiro[3.5]nonan-7-yl)-3-(5-(trifluoromethyl)-1,3,4-thiadiazol-2-yl)pyrazolo[1,5-a]pyridine-5-sulfonamide] as the compound, how does the IC50 (Kuramochi cells) read?
A: < 1000 nM

Q: What about the IC50 [1] of the same compound?
A: < 100 nM

Q: `CC1(NS(=O)(=O)c2cc(N3CCC4(CC3)COC4)n3ncc(-c4nc(C(F)F)cs4)c3c2)CC1` [Example 15, 3-(4-(difluoromethyl)thiazol-2-yl)-N-(1-methylcyclopropyl)-7-(2-oxa-7-azaspiro[3.5]nonan-7-yl)pyrazolo[1,5-a]pyridine-5-sulfonamide] was tested. Which IC50 (Kuramochi cells) did it give?
A: < 1000 nM

Q: And the IC50 [1]?
A: < 100 nM

Q: For `Cc1nnc(-c2cnn3c(N4CCC5(CC4)COC5)cc(S(=O)(=O)NC4(C)CC4)cc23)s1` [Example 7, 3-(5-methyl-1,3,4-thiadiazol-2-yl)-N-(1-methylcyclopropyl)-7-(2-oxa-7-azaspiro[3.5]nonan-7-yl)pyrazolo[1,5-a]pyridine-5-sulfonamide], which IC50 (Kuramochi cells) is on record?
A: < 1000 nM

Q: What about the IC50 [1] of the same compound?
A: < 100 nM

Q: For `CC(=O)N1CCN(c2cc(S(=O)(=O)NC3(C)CC3)cc3c2cnn3-c2nc3c(s2)C(=O)COC3)CC1` [Example 28, 4-(4-acetylpiperazin-1-yl)-N-(1-methylcyclopropyl)-1-(7-oxo-6,7-dihydro-4H-pyrano[3,4-d]thiazol-2-yl)-1H-indazole-6-sulfonamide], which IC50 (Kuramochi cells) is on record?
A: > 5000 nM

Q: And the IC50 [1]?
A: 100 to 500 nM

Q: With `N#CC1(NS(=O)(=O)c2cc(N3CCC4(CC3)COC4)n3cnc(-c4nnc(C(F)F)s4)c3c2)CC1` [Example 36, N-(1-cyanocyclopropyl)-1-(5-(difluoromethyl)-1,3,4-thiadiazol-2-yl)-5-(2-oxa-7-azaspiro[3.5]nonan-7-yl)imidazo[1,5-a]pyridine-7-sulfonamide] as the compound, how does the IC50 (Kuramochi cells) read?
A: < 1000 nM

Q: And the IC50 [1]?
A: < 100 nM

Q: What does the source list for `O=S(=O)(NC1(C(F)F)CC1)c1cc(N2CCC3(CC2)COC3)n2ncc(-c3nnc(C(F)F)s3)c2c1` [Example 10, 3-(5-(difluoromethyl)-1,3,4-thiadiazol-2-yl)-N-(1-(difluoromethyl)cyclopropyl)-7-(2-oxa-7-azaspiro[3.5]nonan-7-yl)pyrazolo[1,5-a]pyridine-5-sulfonamide]?
A: IC50 (Kuramochi cells): < 1000 nM; IC50 [1]: < 100 nM

Q: Which IC50 (Kuramochi cells) does the source give for `CC1(NS(=O)(=O)c2cc(N3CCC4(CC3)COC4)n3cnc(-c4nnc(C(F)F)s4)c3c2)CC1` [Example 34, 1-(5-(difluoromethyl)-1,3,4-thiadiazol-2-yl)-N-(1-methylcyclopropyl)-5-(2-oxa-7-azaspiro[3.5]nonan-7-yl)imidazo[1,5-a]pyridine-7-sulfonamide] here?
A: < 1000 nM

Q: And the IC50 [1]?
A: < 100 nM

Q: Which IC50 (Kuramochi cells) does the source give for `CC(C)OC(=O)N1CCN(c2cc(S(=O)(=O)NC3(C#N)CC3)cc3c(-c4nnc(C(F)F)s4)cnn23)CC1` [Example 17, Isopropyl 4-(5-(N-(1-cyanocyclopropyl)sulfamoyl)-3-(5-(difluoromethyl)-1,3,4-thiadiazol-2-yl)pyrazolo[1,5-a]pyridin-7-yl)piperazine-1-carboxylate] here?
A: < 1000 nM

Q: And the IC50 [1]?
A: < 100 nM

Q: Which IC50 (Kuramochi cells) does the source give for `CC1(NS(=O)(=O)c2cc(-n3cc(C4(O)CCC4)cn3)c3cnn(-c4nnc(C5(O)CCC5)s4)c3c2)CC1` [Example 31, 4-[4-(1-hydroxycyclobutyl)pyrazol-1-yl]-1-[5-(1-hydroxycyclobutyl)-1,3,4-thiadiazol-2-yl]-N-(1-methylcyclopropyl)indazole-6-sulfonamide] here?
A: 1000 to 5000 nM

Q: And the IC50 [1]?
A: 100 to 500 nM

Q: `O=S(=O)(NC1(C(F)(F)F)CC1)c1cc(N2CCC3(CC2)COC3)n2ncc(-c3nnc(C(F)F)s3)c2c1` [Example 13, 3-[5-(difluoromethyl)-1,3,4-thiadiazol-2-yl]-7-(2-oxa-7-azaspiro[3.5]nonan-7-yl)-N-[1-(trifluoromethyl)cyclopropyl]pyrazolo[1,5-a]pyridine-5-sulfonamide] was tested. Which IC50 (Kuramochi cells) did it give?
A: 1000 to 5000 nM

Q: What about the IC50 [1] of the same compound?
A: 100 to 500 nM

Q: Which results are given for `CC1(NS(=O)(=O)c2cc(N3CCC4(CC3)COC4)n3ncc(-c4nnc(C(F)F)s4)c3c2)CC1` [Example 1, 3-(5-(difluoromethyl)-1,3,4-thiadiazol-2-yl)-N-(1-methylcyclopropyl)-7-(2-oxa-7-azaspiro[3.5]nonan-7-yl)pyrazolo[1,5-a]pyridine-5-sulfonamide]?
A: IC50 (Kuramochi cells): < 1000 nM; IC50 [1]: < 100 nM

Q: For `O=S(=O)(NC1(C(F)F)CC1)c1cc(N2CCC3(CC2)COC3)c2ncc(-c3nnc(C(F)F)s3)n2c1` [Example 37, 3-(5-(difluoromethyl)-1,3,4-thiadiazol-2-yl)-N-(1-(difluoromethyl)cyclopropyl)-8-(2-oxa-7-azaspiro[3.5]nonan-7-yl)imidazo[1,2-a]pyridine-6-sulfonamide], which IC50 (Kuramochi cells) is on record?
A: < 1000 nM

Q: And the IC50 [1]?
A: < 100 nM
